Laboratory results as given in ChEMBL document CHEMBL1909046, “DrugMatrix in vitro pharmacology data”.

Columns and labels:
[1] = biological target: Platelet-activating factor receptor (Homo sapiens, UniProt P25105); experiment: biochemical; format: tissue-based; conditions: platelet; also: in other assays of this panel Not Active means under 50% inhibition at 10 µM
[2] = biological target: T1, Neuropeptide Y receptor type 2 (Homo sapiens, UniProt P49146); format: cell membranes, Membrane; conditions: kan-ts; also: in other assays of this panel Not Active means under 50% inhibition at 10 µM
T1 sequence (P49146 whole entry): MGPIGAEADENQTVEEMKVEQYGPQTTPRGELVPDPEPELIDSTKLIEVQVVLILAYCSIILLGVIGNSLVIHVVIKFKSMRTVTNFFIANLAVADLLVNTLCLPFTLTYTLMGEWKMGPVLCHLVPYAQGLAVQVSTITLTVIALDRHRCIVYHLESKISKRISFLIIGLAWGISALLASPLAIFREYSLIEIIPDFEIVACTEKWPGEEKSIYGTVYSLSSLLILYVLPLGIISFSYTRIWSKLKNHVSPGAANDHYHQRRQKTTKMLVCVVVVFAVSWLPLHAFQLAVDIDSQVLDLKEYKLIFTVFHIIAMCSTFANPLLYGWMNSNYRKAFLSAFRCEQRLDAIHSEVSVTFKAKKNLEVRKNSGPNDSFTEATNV

[3] = biological target: T2, Polyunsaturated fatty acid lipoxygenase ALOX15 (Oryctolagus cuniculus, UniProt P12530); experiment: biochemical; format: tissue-based, Reticulocytes; conditions: reticulocytes;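 also: inhibition of 15-lipoxygenase enzyme activity measured with linoleic acid as the substrate; in other assays of this panel Not Active means under 50% inhibition at 10 µM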
T2 sequence (P12530 whole entry): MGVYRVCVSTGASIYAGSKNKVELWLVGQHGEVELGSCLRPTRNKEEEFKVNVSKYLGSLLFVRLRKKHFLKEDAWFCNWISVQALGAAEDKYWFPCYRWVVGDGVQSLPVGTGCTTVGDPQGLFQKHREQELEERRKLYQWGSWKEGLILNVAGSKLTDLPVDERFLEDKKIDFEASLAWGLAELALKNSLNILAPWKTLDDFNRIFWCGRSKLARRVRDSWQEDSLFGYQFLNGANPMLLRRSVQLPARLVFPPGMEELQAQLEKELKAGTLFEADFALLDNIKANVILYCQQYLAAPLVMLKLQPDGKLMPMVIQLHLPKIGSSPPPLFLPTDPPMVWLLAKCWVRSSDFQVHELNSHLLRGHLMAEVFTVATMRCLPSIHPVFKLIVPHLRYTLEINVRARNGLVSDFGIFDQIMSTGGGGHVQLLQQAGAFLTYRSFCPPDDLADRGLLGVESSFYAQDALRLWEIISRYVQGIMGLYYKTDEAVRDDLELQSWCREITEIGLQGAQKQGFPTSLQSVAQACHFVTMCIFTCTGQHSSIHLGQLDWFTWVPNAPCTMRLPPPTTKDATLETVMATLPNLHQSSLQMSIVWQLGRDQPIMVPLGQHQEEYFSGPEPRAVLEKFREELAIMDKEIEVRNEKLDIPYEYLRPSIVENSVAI

[4] = biological target: Vascular endothelial growth factor receptor 1 (Homo sapiens, UniProt P17948); experiment: biochemical; format: cell-based, HUVEC; conditions: huvec; also: in other assays of this panel Not Active means under 50% inhibition at 10 µM
Sequence of Vascular endothelial growth factor receptor 1 (P17948 whole entry): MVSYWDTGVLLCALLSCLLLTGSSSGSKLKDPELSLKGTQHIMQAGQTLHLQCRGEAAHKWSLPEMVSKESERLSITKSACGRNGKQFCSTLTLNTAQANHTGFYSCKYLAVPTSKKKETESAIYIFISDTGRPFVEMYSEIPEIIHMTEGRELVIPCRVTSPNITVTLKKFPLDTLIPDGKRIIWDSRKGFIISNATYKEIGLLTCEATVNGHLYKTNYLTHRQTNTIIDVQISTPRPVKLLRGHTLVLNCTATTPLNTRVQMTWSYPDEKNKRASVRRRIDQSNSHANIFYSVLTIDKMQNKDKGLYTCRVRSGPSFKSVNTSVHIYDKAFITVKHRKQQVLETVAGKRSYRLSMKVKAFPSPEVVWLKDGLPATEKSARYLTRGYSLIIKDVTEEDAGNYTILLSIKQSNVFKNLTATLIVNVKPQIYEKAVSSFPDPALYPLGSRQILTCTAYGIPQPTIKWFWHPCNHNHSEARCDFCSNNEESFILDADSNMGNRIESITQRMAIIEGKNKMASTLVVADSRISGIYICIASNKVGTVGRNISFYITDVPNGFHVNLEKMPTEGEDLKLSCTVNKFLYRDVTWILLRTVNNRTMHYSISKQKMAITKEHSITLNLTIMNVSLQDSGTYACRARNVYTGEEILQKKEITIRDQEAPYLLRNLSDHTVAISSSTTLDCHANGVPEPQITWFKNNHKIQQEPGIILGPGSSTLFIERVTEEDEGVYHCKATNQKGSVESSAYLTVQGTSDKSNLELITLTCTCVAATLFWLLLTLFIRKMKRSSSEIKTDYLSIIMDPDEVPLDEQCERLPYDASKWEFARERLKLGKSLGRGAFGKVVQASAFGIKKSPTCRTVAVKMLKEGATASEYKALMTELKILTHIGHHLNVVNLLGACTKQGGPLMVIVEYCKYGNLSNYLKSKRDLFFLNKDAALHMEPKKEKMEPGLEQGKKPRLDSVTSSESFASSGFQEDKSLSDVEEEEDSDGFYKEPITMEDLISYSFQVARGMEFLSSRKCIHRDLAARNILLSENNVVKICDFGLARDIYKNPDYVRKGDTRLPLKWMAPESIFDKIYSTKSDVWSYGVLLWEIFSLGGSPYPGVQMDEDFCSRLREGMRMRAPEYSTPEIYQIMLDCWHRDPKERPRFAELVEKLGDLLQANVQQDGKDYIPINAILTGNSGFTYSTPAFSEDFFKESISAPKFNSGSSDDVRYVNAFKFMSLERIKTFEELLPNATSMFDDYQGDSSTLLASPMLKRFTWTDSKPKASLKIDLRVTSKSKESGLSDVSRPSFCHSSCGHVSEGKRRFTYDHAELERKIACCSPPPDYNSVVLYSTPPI

Cytochrome P450 2D6 = Cytochrome P450 2D6 (Homo sapiens, UniProt P10635); conditions: bti-tn-5b1-4; also: in other assays of this panel Not Active means under 50% inhibition at 10 µM
Sequence of Cytochrome P450 2D6 (P10635 whole entry): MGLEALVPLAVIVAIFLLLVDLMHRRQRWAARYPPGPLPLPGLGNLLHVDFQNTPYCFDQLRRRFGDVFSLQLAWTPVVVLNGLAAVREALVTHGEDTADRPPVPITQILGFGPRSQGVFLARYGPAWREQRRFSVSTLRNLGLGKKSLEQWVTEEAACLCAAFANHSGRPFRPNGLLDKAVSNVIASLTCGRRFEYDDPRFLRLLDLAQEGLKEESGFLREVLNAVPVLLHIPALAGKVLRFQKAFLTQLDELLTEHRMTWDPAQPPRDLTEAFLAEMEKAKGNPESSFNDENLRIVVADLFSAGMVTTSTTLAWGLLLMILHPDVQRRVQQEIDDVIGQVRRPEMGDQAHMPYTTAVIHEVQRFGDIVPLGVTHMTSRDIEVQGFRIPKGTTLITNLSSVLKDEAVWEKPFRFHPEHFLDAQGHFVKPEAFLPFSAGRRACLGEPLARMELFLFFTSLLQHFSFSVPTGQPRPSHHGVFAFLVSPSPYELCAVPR

Estrogen receptor beta = Estrogen receptor beta (Homo sapiens, UniProt Q92731); conditions: sf9; also: in other assays of this panel Not Active means under 50% inhibition at 10 µM
Sequence of Estrogen receptor beta (Q92731 whole entry): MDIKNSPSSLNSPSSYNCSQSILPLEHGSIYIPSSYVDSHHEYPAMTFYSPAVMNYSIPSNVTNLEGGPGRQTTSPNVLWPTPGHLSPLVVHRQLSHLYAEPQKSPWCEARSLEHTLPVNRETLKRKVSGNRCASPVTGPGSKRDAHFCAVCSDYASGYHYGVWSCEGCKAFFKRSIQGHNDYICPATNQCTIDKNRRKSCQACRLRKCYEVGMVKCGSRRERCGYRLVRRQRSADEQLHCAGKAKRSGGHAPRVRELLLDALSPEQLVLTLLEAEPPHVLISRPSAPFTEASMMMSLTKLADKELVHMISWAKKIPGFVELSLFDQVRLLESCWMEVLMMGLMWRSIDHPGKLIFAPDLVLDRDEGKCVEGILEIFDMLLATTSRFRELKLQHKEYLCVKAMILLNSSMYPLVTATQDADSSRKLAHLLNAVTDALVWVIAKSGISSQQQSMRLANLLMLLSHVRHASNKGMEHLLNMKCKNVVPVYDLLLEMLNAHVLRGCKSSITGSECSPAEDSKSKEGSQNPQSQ

[5] = biological target: T3, Receptor-type tyrosine-protein phosphatase C (Homo sapiens, UniProt P08575); design: species or system Escherichia coli
T3 sequence (P08575 whole entry): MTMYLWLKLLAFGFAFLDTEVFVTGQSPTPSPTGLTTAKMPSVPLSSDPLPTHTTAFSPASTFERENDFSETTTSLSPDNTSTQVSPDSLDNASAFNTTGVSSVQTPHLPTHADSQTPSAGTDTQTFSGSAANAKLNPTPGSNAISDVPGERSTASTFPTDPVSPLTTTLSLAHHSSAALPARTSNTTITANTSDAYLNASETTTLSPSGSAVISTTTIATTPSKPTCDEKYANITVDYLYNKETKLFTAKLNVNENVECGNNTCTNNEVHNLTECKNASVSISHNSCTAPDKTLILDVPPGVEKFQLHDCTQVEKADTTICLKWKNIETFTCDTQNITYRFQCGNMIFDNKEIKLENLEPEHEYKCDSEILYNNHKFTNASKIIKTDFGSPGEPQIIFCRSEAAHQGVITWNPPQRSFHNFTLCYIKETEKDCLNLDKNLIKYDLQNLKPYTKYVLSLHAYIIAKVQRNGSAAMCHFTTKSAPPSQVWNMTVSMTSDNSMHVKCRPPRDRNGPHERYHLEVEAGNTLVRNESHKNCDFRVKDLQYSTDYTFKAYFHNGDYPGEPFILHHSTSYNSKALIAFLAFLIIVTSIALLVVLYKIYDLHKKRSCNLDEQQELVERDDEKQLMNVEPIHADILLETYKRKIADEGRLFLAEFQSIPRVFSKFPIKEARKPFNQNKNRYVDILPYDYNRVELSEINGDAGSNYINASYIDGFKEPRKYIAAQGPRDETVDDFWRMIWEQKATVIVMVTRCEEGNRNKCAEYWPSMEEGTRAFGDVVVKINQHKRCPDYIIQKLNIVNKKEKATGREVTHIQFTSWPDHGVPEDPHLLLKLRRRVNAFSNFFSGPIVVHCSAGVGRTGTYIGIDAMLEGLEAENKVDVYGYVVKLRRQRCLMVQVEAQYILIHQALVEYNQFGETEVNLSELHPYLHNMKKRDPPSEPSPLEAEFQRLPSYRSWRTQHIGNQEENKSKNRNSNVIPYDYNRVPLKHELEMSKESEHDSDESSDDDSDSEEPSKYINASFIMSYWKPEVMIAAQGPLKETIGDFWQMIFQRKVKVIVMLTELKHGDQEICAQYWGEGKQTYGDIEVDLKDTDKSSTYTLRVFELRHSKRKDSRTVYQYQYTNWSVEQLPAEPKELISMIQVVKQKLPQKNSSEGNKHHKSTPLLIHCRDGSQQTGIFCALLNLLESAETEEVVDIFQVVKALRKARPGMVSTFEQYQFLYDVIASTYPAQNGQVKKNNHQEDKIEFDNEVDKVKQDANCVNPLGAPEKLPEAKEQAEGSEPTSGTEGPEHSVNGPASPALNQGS

[6] = DRUGMATRIX: Atrial Natriuretic Factor (ANF) radioligand binding (ligand: [125I] ANF (rat)); format: cell membranes, Cavia porcellus, Dunkin-Hartley, Adrenal gland, Membrane; conditions: Not Active = under 50% inhibition at 10 µM

Sequence of Platelet-activating factor receptor (P25105 whole entry): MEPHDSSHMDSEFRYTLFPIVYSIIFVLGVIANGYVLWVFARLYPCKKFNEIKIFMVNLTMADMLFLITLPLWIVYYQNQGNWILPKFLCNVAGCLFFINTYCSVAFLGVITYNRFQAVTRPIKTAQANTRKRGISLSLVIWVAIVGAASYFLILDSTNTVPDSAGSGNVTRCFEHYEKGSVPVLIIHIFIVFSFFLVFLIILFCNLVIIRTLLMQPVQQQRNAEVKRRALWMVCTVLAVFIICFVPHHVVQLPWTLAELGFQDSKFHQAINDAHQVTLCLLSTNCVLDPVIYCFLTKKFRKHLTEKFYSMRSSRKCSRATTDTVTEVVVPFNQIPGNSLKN

| Compound | IC50 [1] | IC50 [2] | IC50 [3] | IC50 [4] | IC50 (Cytochrome P450 2D6) | Ki (Cytochrome P450 2D6) | IC50 (Estrogen receptor beta) | IC50 [5] | IC50 [6] | Ki [6] | Ki [1] | Ki [2] | Ki [3] | Ki [4] | Ki (Estrogen receptor beta) | Ki [5] |
| --- | --- | --- | --- | --- | --- | --- | --- | --- | --- | --- | --- | --- | --- | --- | --- | --- |
| CNS(=O)(=O)Cc1ccc2[nH]cc(CCN(C)C)c2c1 | Not Active | Not Active | Not Active | Not Active | Not Active | Not Active | Not Active | Not Active | Not Active | Not Active |  |  |  |  |  |  |
| COc1ccc(/C=C/C(=O)Nc2ccccc2C(=O)O)cc1OC | Not Active | Not Active | Not Active | Not Active | Not Active | Not Active | Not Active | Not Active | Not Active | Not Active |  |  |  |  |  |  |
| CC1=C(CC(=O)O)c2cc(F)ccc2/C1=C\c1ccc(S(C)(=O)=O)cc1 [EXISULIND] | Not Active | Not Active | Not Active | Not Active | Not Active | Not Active | Not Active | Not Active | Not Active | Not Active |  |  |  |  |  |  |
| Nc1nc2c(c(=O)[nH]1)N(C=O)C(CNc1ccc(C(=O)N[C@@H](CCC(=O)O)C(=O)O)cc1)CN2 (some centres undefined) [LEUCOVORIN] | Not Active | Not Active | Not Active | Not Active | Not Active | Not Active | Not Active | Not Active | Not Active | Not Active |  |  |  |  |  |  |
| C[C@@H](O)[C@H]1C(=O)N2C(C(=O)O)=C(S[C@@H]3CN[C@H](C(=O)N(C)C)C3)[C@H](C)[C@H]12 [MEROPENEM] | Not Active | Not Active | Not Active | Not Active | Not Active | Not Active | Not Active | Not Active | Not Active | Not Active |  |  |  |  |  |  |
| CCN(CC)CC#CCOC(=O)C(O)(c1ccccc1)C1CCCCC1 (centres undefined) [OXYBUTYNIN] | Not Active | Not Active | Not Active | Not Active | Not Active | Not Active | Not Active | Not Active |  |  |  |  |  |  |  |  |
| C#CCN(C)[C@H](C)Cc1ccccc1 [SELEGILINE] | Not Active | Not Active | Not Active | Not Active | Not Active | Not Active | Not Active | Not Active | Not Active | Not Active |  |  |  |  |  |  |
| CO[C@H]1C[C@@H]2CC[C@@H](C)[C@@](O)(O2)C(=O)C(=O)N2CCCC[C@H]2C(=O)O[C@H]([C@H](C)C[C@@H]2CC[C@@H](O)[C@H](OC)C2)CC(=O)[C@H](C)/C=C(\C)[C@@H](O)[C@@H](OC)C(=O)[C@H](C)C[C@H](C)/C=C/C=C/C=C/1C [SIROLIMUS] | Not Active | Not Active | Not Active | Not Active | Not Active | Not Active | Not Active | Not Active | Not Active | Not Active |  |  |  |  |  |  |
| Nc1ccc(S(=O)(=O)Nc2ncccn2)cc1 [SULFADIAZINE] | Not Active | Not Active | Not Active | Not Active | Not Active | Not Active | Not Active | Not Active | Not Active | Not Active |  |  |  |  |  |  |
| COc1ncnc(NS(=O)(=O)c2ccc(N)cc2)c1OC [SULFADOXINE] | Not Active | Not Active | Not Active | Not Active | Not Active | Not Active | Not Active | Not Active | Not Active | Not Active |  |  |  |  |  |  |
| C[C@]12CC[C@H]3[C@@H](CCC4=CC(=O)CC[C@@]43C)[C@@H]1CC[C@@H]2O [TESTOSTERONE] | Not Active | Not Active | Not Active | Not Active | Not Active | Not Active | Not Active | Not Active | Not Active | Not Active |  |  |  |  |  |  |
| C[C@@H]1C[C@H]2[C@@H]3CCC4=CC(=O)C=C[C@]4(C)C3=CC[C@]2(C)[C@H]1C(=O)CN1CCN(c2cc(N3CCCC3)nc(N3CCCC3)n2)CC1 [TIRILAZAD] | Not Active | Not Active | Not Active | Not Active | Not Active | Not Active | Not Active | Not Active | Not Active | Not Active |  |  |  |  |  |  |
| NC[C@H]1O[C@H](O[C@H]2[C@H](O)[C@@H](O[C@H]3O[C@H](CO)[C@@H](O)[C@H](N)[C@H]3O)[C@H](N)C[C@@H]2N)[C@H](N)C[C@@H]1O [TOBRAMYCIN] | Not Active | Not Active | Not Active | Not Active | Not Active | Not Active | Not Active | Not Active | Not Active | Not Active |  |  |  |  |  |  |
| COc1cc(C(=O)NS(=O)(=O)c2ccccc2C)ccc1Cc1cn(C)c2ccc(NC(=O)OC3CCCC3)cc12 [ZAFIRLUKAST] | Not Active | Not Active | Not Active | Not Active | Not Active | Not Active | Not Active | Not Active | Not Active | Not Active |  |  |  |  |  |  |
| STANNOUS FLUORIDE | Not Active | Not Active | Not Active | Not Active | Not Active | Not Active | Not Active | Not Active | Not Active | Not Active | Not Active | Not Active | Not Active | Not Active | Not Active | Not Active |
| THIMEROSAL | Not Active | Not Active | Not Active | Not Active | 3 µM |  | Not Active | Not Active | Not Active | Not Active | Not Active | Not Active | Not Active | Not Active | Not Active | Not Active |
